Reference: the supplement of paper PMC10307832

How the values were obtained:
Test in all cases: relative viability (nuclei count vs DMSO), 5 days (fraction); higher = more cells survive
[1] = compound: CCN(CCO)CCCC(C)Nc1ccnc2cc(Cl)ccc12 [Hydroxychloroquine] + O=C(c1cc(Cc2n[nH]c(=O)c3ccccc23)ccc1F)N1CCN(C(=O)C2CC2)CC1 [Olaparib] (partner 8 µM)
Procedure, shortened: (§1)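 Cells from lung cancer lines were seeded into 1536-well plates and, one day later, dosed by pin tool. Treatments were either a single drug or a fixed dose of an anchor drug with five library-drug doses (not always all listed) in √10 steps. After 5 days, nuclei were stained in a one-step fixation (final 0.05% Triton X-100, 1% formaldehyde, 1 ug/ml Hoechst) and counted on 4× images, and relative viability is the treated-to-vehicle nuclei ratio, as the median of duplicate plates.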

[2] = compound: CCN(CCO)CCCC(C)Nc1ccnc2cc(Cl)ccc12 [Hydroxychloroquine] + CC(=O)c1c(C)c2cnc(Nc3ccc(N4CCNCC4)cn3)nc2n(C2CCCC2)c1=O [Palbociclib] (partner 0.5 µM)
Procedure, shortened: as §1

[3] = compound: CCN(CCO)CCCC(C)Nc1ccnc2cc(Cl)ccc12 [Hydroxychloroquine] + Cc1nc(NC(=O)N2CCC[C@H]2C(N)=O)sc1-c1ccnc(C(C)(C)C(F)(F)F)c1 [Alpelisib] (partner 2 µM)
Procedure, shortened: as §1

[4] = compound: CCN(CCO)CCCC(C)Nc1ccnc2cc(Cl)ccc12 [Hydroxychloroquine] + Nc1nc2[nH]cc(CCc3ccc(C(=O)N[C@@H](CCC(=O)O)C(=O)O)cc3)c2c(=O)[nH]1 [Pemetrexed] (partner 0.2 µM)
Procedure, shortened: as §1

| Cell Line | relative viability ([1]; first compound 0.5 µM) | relative viability ([1]; first compound 1.581 µM) | relative viability ([1]; first compound 5 µM) | relative viability ([1]; first compound 15.81 µM) | relative viability ([1]; first compound 50 µM) | relative viability ([2]; first compound 0.5 µM) | relative viability ([2]; first compound 1.581 µM) | relative viability ([2]; first compound 5 µM) | relative viability ([2]; first compound 15.81 µM) | relative viability ([2]; first compound 50 µM) | relative viability ([3]; first compound 0.5 µM) | relative viability ([3]; first compound 1.581 µM) | relative viability ([3]; first compound 5 µM) | relative viability ([3]; first compound 15.81 µM) | relative viability ([3]; first compound 50 µM) | relative viability ([4]; first compound 0.5 µM) | relative viability ([4]; first compound 1.581 µM) | relative viability ([4]; first compound 5 µM) | relative viability ([4]; first compound 15.81 µM) | relative viability ([4]; first compound 50 µM) |
| --- | --- | --- | --- | --- | --- | --- | --- | --- | --- | --- | --- | --- | --- | --- | --- | --- | --- | --- | --- | --- |
| EKVX | 0.978 | 0.755 | 0.769 | 0.763 | 1.04 | 0.354 | 0.374 | 0.377 | 0.74 | 0.412 | 0.964 | 0.867 | 0.844 | 0.846 | 0.912 | 0.385 | 0.394 | 0.32 | 0.385 | 0.423 |
| EMC-BAC-2 | 0.508 | 0.439 | 0.472 | 0.484 | 0.442 | 0.52 | 0.45 | 0.519 | 0.514 | 0.523 | 0.736 | 0.708 | 0.767 | 0.727 | 0.75 | 0.49 | 0.439 | 0.434 | 0.313 | 0.411 |
| EPLC-272H |  | 0.891 | 0.94 | 0.929 | 0.73 | 0.281 | 0.34 | 0.309 | 0.285 | 0.295 | 0.928 | 0.858 | 0.94 | 0.998 | 0.919 |  | 0.331 | 0.325 | 0.341 | 0.352 |
| H3255 | 0.592 | 0.562 | 0.544 | 0.582 | 0.55 | 0.335 | 0.32 | 0.303 | 0.318 | 0.312 | 0.759 | 0.612 | 0.727 | 0.675 | 0.72 | 0.566 | 0.603 | 0.543 | 0.586 | 0.477 |
| HARA | 0.64 | 0.838 | 1.04 | 1.14 | 0.487 | 0.239 | 0.292 | 0.26 | 0.302 | 0.23 | 0.763 | 0.856 | 0.863 | 0.805 | 0.841 | 0.286 | 0.231 | 0.233 | 0.263 | 0.251 |
| HCC-15 | 0.688 | 0.675 | 0.735 | 0.817 | 0.626 | 0.754 | 0.762 | 0.745 | 0.731 | 0.574 | 0.925 | 0.841 | 0.839 | 0.879 | 0.909 | 0.231 | 0.241 | 0.205 | 0.226 | 0.231 |
| HCC-44 | 0.964 | 1.02 | 1.03 | 1.01 | 1.04 | 0.952 | 1.03 | 1.01 | 1.04 | 1.03 | 0.815 | 0.838 | 0.86 | 0.922 | 0.902 | 0.635 | 0.709 | 0.653 | 0.655 | 0.659 |
| HCC-78 | 0.899 | 0.841 | 0.794 | 0.864 | 0.923 | 0.469 | 0.48 | 0.483 | 0.527 | 0.451 | 0.394 | 0.299 | 0.316 | 0.331 | 0.31 | 0.927 | 0.973 | 0.902 | 0.891 | 0.959 |
